The test system of assay [1] is renin mRNA, As4.1-hVDR cells. In words: Renin mRNA by Northern blot in As4.1-hVDR cells (vitamin D analog screening). Type of assay: cell-based, mouse. How it is done:
Vitamin D analogues listed in TABLE 1 were used to treat As4.1-hVDR cells at 10^−10, 10^−9 and 10^−8 M. Renin mRNA was analyzed by Northern blot. 36B4 is a control mRNA and represents a mouse acidic ribosomal phosphoprotein.
FIG. 4 is an histogram of evaluation of Gemini analogues by Northern blot analysis. The 11 Gemini compounds listed in TABLE 2 (indicated) were used to treat As4.1 hVDR cells at 10^−10, 10^−9, and 10^−8 M for 24 hours. Renin mRNA was quantitated by Northern blots. The quantitative data obtained at 10^−10 and 10^−9 M are shown in A and B. The # of each compound corresponds to the number shown in TABLE 2. E, ethanol-treated control, VD, 1,25(OH)2D3.
(§1) RNA isolation and northern blot. The kidney and liver were dissected and immediately placed into the Trizol Reagent (Invitrogen, Grand Island, N.Y.) for total RNA isolation according to the manufacturer's instruction. To determine renin or angiotensinogen mRNA expression, total RNA (20 μg/lane) was separated on a 1.2% agarose gel containing 0.6 M formaldehyde, transferred onto a Nylon membrane (MSI, Westborough, Mass.) and crosslinked in a UV crosslinker (Bio-Rad, Hercules, Calif.). Hybridization was performed as described by Li et al. (2001). Mouse renin and angiotensinogen cDNA probes were labeled with ^32P-dATP (ICN, Costa Mesa, Calif.) using the Prime-a-gene Labeling System (Promega, Madison, Wis.). After hybridization and washing, membranes were exposed to X-ray films at −80° C. for autoradiography. The relative amount of mRNA was quantitated using a Phospholmager (Molecular Dynamics, Sunnyvale, Calif.) and normalized with 36B4 mRNA.
As4.1 cell culture and transfection. As4.1 cells (ATCC, Manassas, Va.) were cultured in DMEM supplemented with 10% FBS at 37° C. and 5% CO2. For transient transfection, the cells were grown in 10-cm dishes to 50% confluence and transfected with pcDNA3.1, pcDNA-hVDR or pcDNA-PTH/PTHrPR plasmid (10 μg DNA/dish) by the standard calcium phosphate method. Twenty-four hr after transfection, the cells were treated for 24 hr with 5×10^−8 M of 1,25(OH)2D3 or ethanol in serum-free media, or with different doses of bovine PTH(1-34) as indicated. Total RNA was isolated and analyzed for renin mRNA expression by northern blot. For stable transfection, As4.1 cells were transfected with pcDNA3.1 or pcDNA-hVDR plasmid by the use of Superfect reagent (Qiagen, Valencia, Calif.) and selected with 350 μg/ml of G418 for two weeks. Individual colonies were picked, expanded and selected for VDR expression. The As4.1-hVDR stable clones were treated with different doses of 1,25(OH)2D3 for 24 hr in serum-free media, and total RNA were analyzed by northern blot to examine renin expression.

For a further assay, the system named is renin mRNA, As4.1 cells. The assay is described as follows: Renin mRNA by northern blot in As4.1 cells with or without transient transfection. Type of assay: cell-based, mouse. To be noted: 5×10^−8 M.
Description: A. As4.1 cells were transiently transfected with (+) or without (−) pcDNA-hVDR plasmid containing the full-length human VDR cDNA and then. treated with 5×10^−8 M of 1,25(OH)2D3 (+) or ethanol (−) for 24 hrs. Total cellular RNA was isolated and analyzed by northern blot with renin and 36B4 cDNA probes. B. Quantitative results of northern blot analyses obtained from three independent experiments. C, ethanol-treated; VD, 1,25(OH)2D3-treated; T, transfected with pcDNA-hVDR and treated with ethanol; T/VD, transfected with pcDNA-hVDR and treated with 1,25(OH)2D3. *, P<0.001 vs. C, VD or T value. C. Renin mRNA expression in As4.1 cells (left panel), and in As4.1 cells transfected with pcDNA-PTH/PTHrPR containing the rat PTH/PTHrP receptor cDNA (right panel) and treated with bovine PTH (1-34) as indicated. −, untreated.
as §1
As4.1 cell culture and transfection. […] Total RNA was isolated and analyzed for renin mRNA expression by northern blot. […] The As4.1-hVDR stable clones were treated with different doses of 1,25(OH)2D3 for 24 hr in serum-free media, and total RNA were analyzed by northern blot to examine renin expression.

The subject of another assay is renin mRNA in the kidney. In words: Renin mRNA in the kidney of treated mice (Northern blot). Format: in vivo, mouse. To be noted: wildtype mice. How it is done: A. […] The 2 doses were given in two consecutive days at 9 am. The 5 doses were given in three consecutive days at 9 am and 7 pm for the first two days, and at 9 am on the third day. Total renal RNA was isolated 6 hr after the last injection. Renin, calbindin-D9k (CaBP-D9k) and 36B4 mRNA levels were determined by Northern blot analysis. B. Quantitation of renin mRNA levels.
(A) Blood ionized calcium levels.
As a control for vitamin D action, Calbindin-D9k stimulation was measured. Quantitative data were presented below the Northern blot gels.
Total kidney RNAs were separated on agarose gels (20 μg/lane). Membranes were hybridized sequentially with 32P-labeled renin and 36B4 cDNA probes. The relative amount of renin mRNA was quantitated after being normalized with 36B4 mRNA levels. […] (B) Quantitative results-from Northern blots in (A).
Animals and treatment. […] VDR^−/− and Gcm2^−/− mice were generated through breeding of heterozygous mice and identified by PCR with tail genomic DNA as the template, and the wild-type littermates were used as controls. […] To increase the sodium load, mice were fed the normal rodent diet supplemented with 8% NaCl for 1, 3, 5 and 7 days. […] Wild-type mice were injected (i.p.) with vehicle or 30 pmole of 1,25(OH)2D3 dissolved in propylene glycol. Mice were sacrificed by exsanguination under anesthesia and the blood was collected into ice-cold tubes for serum isolation, or into ice-cold tubes containing 50 μl of EDTA (pH 8.0) and 100 U/ml aprotinin for plasma isolation. The determination of water and food intake, as well as urine collection, were carried out by using metabolic cages.
as §1, with “To determine renin or angiotensinogen mRNA expression, total RNA (20 μg/lane) was separated on a 1.2% agarose gel containing 0.6 M formaldehyde, transferred onto a Nylon membrane (MSI, Westborough, Mass.) and crosslinked in a UV crosslinker (Bio-Rad, Hercules, Calif.). Hybridization was performed as described by Li et al. (2001).” left out

In the case of `C=C1/C(=C\C=C2/CCC[C@]3(C)[C@@H]([C@H](C)CCCC(C)(C)O)CC[C@@H]23)C[C@@H](O)C[C@@H]1O` [1,25-dihydroxyvitamin D3], the “Renin expression in stable As4.1-hVDR clones at different doses” value in assay [1] (not seen in As4.1-pcDNA cells) is on record as “dose-dependent suppression”. Moreover, the “Reduction of the level of renin mRNA” value in assay [1] (stable As4.1-hVDR cells, 10^−8 M, 24 hr) is on record as “about 90%”. Also, the “Time of treatment after which suppression of renin mRNA was evident” value in assay [1] (time-course studies, As4.1-hVDR cells) was found to be 6 h. In addition, the “Renin mRNA expression in As4.1 cells” value with renin mRNA, As4.1 cells (As4.1 cells not transfected) was “moderate reduction”. In addition, the “Reduction of renin mRNA expression” value in the assay with renin mRNA, As4.1 cells (As4.1 cells transiently transfected with pcDNA-hVDR, 24 hrs) is on record as “about 90%”. For the same compound, in the assay on renin mRNA in the kidney (30 pmole/dose i.p., control vitamin D target gene), the “mRNA of renal calbindin-D9k” value is listed as “significantly increased”. The “Decrease of renal renin expression” value with renin mRNA in the kidney (five doses of 30 pmole i.p. in three days) is given as 50%; in the assay with renin mRNA in the kidney (two doses of 30 pmole/dose i.p. in two consecutive days), 35%.

For the origin of these results see patent US20050113348A1, “Vitamin D and vitamin D analogs or derivatives as new anti-hypertensive agents” (priority 2003, published 2005).
